Consider four compounds from ChEMBL document CHEMBL1130617, “S-aryl cysteine S,S-dioxides as inhibitors of mammalian kynureninase” (Bioorg Med Chem Lett, 1998).

Assay [1] concerns the target T1, Kynureninase (Rattus norvegicus, UniProt P70712).
T1 sequence (P70712 whole entry): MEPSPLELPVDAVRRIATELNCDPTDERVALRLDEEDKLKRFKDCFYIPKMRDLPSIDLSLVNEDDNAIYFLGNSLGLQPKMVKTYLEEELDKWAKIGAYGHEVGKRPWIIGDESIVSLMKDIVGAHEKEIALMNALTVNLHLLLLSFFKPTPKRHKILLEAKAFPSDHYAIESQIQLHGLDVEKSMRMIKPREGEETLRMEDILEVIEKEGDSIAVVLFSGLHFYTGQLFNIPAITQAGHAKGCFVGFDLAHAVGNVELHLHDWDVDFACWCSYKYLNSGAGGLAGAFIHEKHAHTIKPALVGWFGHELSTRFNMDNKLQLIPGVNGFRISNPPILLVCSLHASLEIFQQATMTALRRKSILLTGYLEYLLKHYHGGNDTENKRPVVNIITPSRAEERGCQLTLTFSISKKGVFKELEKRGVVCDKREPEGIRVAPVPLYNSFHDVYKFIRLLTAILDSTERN
The assay is described as follows: Compound was tested for the binding affinity against kynureninase in rat liver.

Assay [2] concerns the target T1, Kynureninase. The assay is described as follows: Compound was tested for the inhibition of mammalian kynureninase in rat liver. In kind it is tissue-based.

For `Nc1ccccc1S(=O)(=O)CC(N)C(=O)O` (stereo not given), the affinity in assay [1] corresponds to a Ki of 18 µM. This compound also yielded an IC50 in assay [2] of 36 µM.

The compound `Cc1ccc(N)c(S(=O)(=O)CC(N)C(=O)O)c1` (stereo not given) registered an IC50 in assay [2] of 11 µM. That is a double-digit micromolar value.

`Nc1c(F)cccc1S(=O)(=O)CC(N)C(=O)O` (stereo not given): half-maximal inhibition in assay [2] (IC50) was put at 20 µM. Compared with the last compound, the IC50 is about 1.8-fold higher. Same read-out and setting: next, `COc1cccc(S(=O)(=O)CC(N)C(=O)O)c1N` (stereo not given): 29 µM.
